Tests used:
[1] = test system: present invention protein (A1); format: in vitro ADME, Streptomyces phaeochromogenes IFO12898; details: E. coli JM109/pKSN657F cell suspension, compound at 100 ppm, shaking at 30° C., ethyl acetate layer, HPLC
Description: E. coli JM109/pKSN657F was cultured overnight at 37° C. in 3 ml of TB medium containing 50 μg/ml of ampicillin. A milliliter (1 ml) of the obtained culture medium was transferred to 100 ml of TB medium containing 50 μg/ml of ampicillin and cultured at 26° C. When OD660 reached about 0.5, 5-aminolevulinic acid was added to the final concentration of 500 μM, and the culturing was continued. Thirty (30) minutes thereafter, IPTG was added to a final concentration of 1 mM, and there was further culturing for 20 hours.
The cells were recovered from the culture medium, washed with 0.1M tris-HCl buffer (pH7.5) and suspended in 10 ml of 0.1M Tris-HCl buffer containing 1% glucose. Compound (VI) was added to the obtained cell suspension to a final concentration of 100 ppm and that was incubated with shaking at 30° C. At each of 0 hours after and 1 day after the start of shaking, 2 ml of the cell suspension were fractioned. Fifty microliters (50 μl) of 2N HCl were added to each and those were extracted with 2 ml of ethyl acetate. The obtained ethyl acetate layers were analyzed on a HPLC under reaction condition 1. Compared to the concentration of compound (VI) detected from the ethyl acetate layer prepared from the cell suspension at 0 hours after the start of shaking, the concentration of compound (VI) detected from the ethyl acetate later prepared from the cell suspension at 1 day after the start of shaking was lower. Further a peak, which was not detected from the ethyl acetate layer prepared from the cell suspension at 0 hours after the start of shaking, was detected from the ethyl acetate layer prepared from the cell suspension at 1 day after the start of shaking Mass spectrometry of the compound contained in said peak was conducted. […]
Other than utilizing compound (VIII) instead of compound (VI), there was conducted in accordance with the method described in Example 41(6), a culturing of E. coli JM109/pKSN657F, preparation of the cell suspension solution, incubation with shaking of the cell suspension solution to which compound (VIII) was added, reagent preparation from the cell suspension solution and HPLC analysis of the reagents. Compared to the concentration of compound (VIII) detected from the ethyl acetate layer prepared from the cell suspension at 0 hours after the start of shaking, the concentration of compound (VIII) detected from the ethyl acetate layer prepared from the cell suspension at 1 day after the start of shaking was lower. Further two peaks, which were not detected from the ethyl acetate layer prepared from the cell suspension at 0 hours after the start of shaking, were detected from the ethyl acetate layer prepared from the cell suspension at 1 day after the start of shaking Mass spectrometry of the compounds contained in said peaks were conducted. […]

[2] = test system: present invention protein (A11); experiment: Metabolism of compound (X) by the present invention protein (A11), E. coli JM109/pKSN849AF cell suspension; format: in vitro ADME, Streptomyces nogalator IFO13445; details: compound at 25 ppm, shaking at 30° C., fractioned at 0 hours and 4 days, ethyl acetate layer, HPLC
Description: Each of E. coli JM109/pKSN849AF and E. coli JM109/pKSN2 was cultured overnight at 37° C. in 3 ml of TB culture containing 50 μg/ml of ampicillin. A milliliter (1 ml) of the obtained culture mediums was transferred to 100 ml of TB medium containing 50 μg/ml of ampicillin and cultured at 26° C. When OD660 reached about 0.5, 5-aminolevulinic acid was added to the final concentration of 500 μM, and the culturing was continued. Thirty (30) minutes thereafter, IPTG was added to a final concentration of 1 mM, and there was further culturing for 18 hours.
The cells were recovered from the culture medium, washed with 0.1M tris-HCl buffer (pH7.5) and suspended in 10 ml of 0.1M Tris-HCl buffer containing 1% glucose. […] The obtained ethyl acetate layers were analyzed on a HPLC under reaction condition 1. Compared to the concentration of compound (X) detected from the ethyl acetate layer prepared from the JM109/pKSN2 cell suspension, the concentration of compound (X) detected from the ethyl acetate layer prepared from the JM109/pKSN849AF cell suspension was lower. Further 3 peaks, which were not detected from the ethyl acetate layer prepared from the JM109/pKSN2 cell suspension, were detected from the ethyl acetate layer prepared from the JM109/pKSN849AF cell suspension. […]

[3] = test system: Blackgrass; experiment: Herbicidal activity test, foliage treatment; format: in vivo, Alopercurus myosuroides; design: key: 0: situations in which the condition of sprouting or vegetation at the time of examination of the plant utilized for the test was compared with and showed totally or substantially no difference with that of the untreated application; 10: situations in which the plant completely withered or the sprouting or vegetation was completely suppressed; details: sprayed onto the foliage of plants cultivated 10 days, investigated after 16 days in a greenhouse
Description: (§1) Soil was packed into a round plastic pot having a diameter of 10 cm and depth of 10 cm. Barnyardgrass, Blackgrass, Ivyleaf morningglory were seeded and cultivated in a greenhouse for 10 days. Five (5) parts of the test compound, 6 parts of sorpol3005X (Toho Chemical Company) and 89 parts of xylene were well mixed to produce an emulsion. A certain amount thereof was diluted with water containing 0.1% (v/v) of a sticking agent at a proportion of 1000 L for 1 hectare and was spread uniformly with a spray-gun onto the all sides of the foliage from above the plant cultivated in the above pot. After cultivating the plants for 16 days in a greenhouse, the herbicidal activity of the test compound was investigated.
(§2) In the above Tables 3 and 4, the strength of the herbicidal activity is shown stepwise as 0, 1, 2, 3, 4, 5, 6, 7, 8, 9, and 10.

[4] = test system: Ivyleaf morningglory; experiment: Herbicidal activity test, foliage treatment; format: in vivo, Ipomoea hederacea; design: key: 0: situations in which the condition of sprouting or vegetation at the time of examination of the plant utilized for the test was compared with and showed totally or substantially no difference with that of the untreated application; 10: situations in which the plant completely withered or the sprouting or vegetation was completely suppressed; details: sprayed onto the foliage of plants cultivated 10 days, investigated after 16 days in a greenhouse
Description: as §1, §2

[5] = test system: Barnyardgrass; experiment: Herbicidal activity test, soil surface treatment; format: in vivo, Echinochloa crus-galli; design: key: 0: situations in which the condition of sprouting or vegetation at the time of examination of the plant utilized for the test was compared with and showed totally or substantially no difference with that of the untreated application; 10: situations in which the plant completely withered or the sprouting or vegetation was completely suppressed; details: 500 g/ha, sprayed onto the surface of the soil after seeding, investigated after 19 days in a greenhouse
Description: (§3) Soil was packed into a round plastic pot having a diameter of 10 cm and depth of 10 cm. Barnyardgrass, Blackgrass, Ivyleaf morningglory were seeded. Five (5) parts of the test compound, 6 parts of sorpol3005X (Toho Chemical Company) and 89 parts of xylene were well mixed to produce an emulsion. A certain amount thereof was diluted with water containing 0.1% (v/v) of a sticking agent at a proportion of 1000 L for 1 hectare and was spread uniformly with a spray-gun onto the surface of the soil. After cultivating the plants for 19 days in a greenhouse, the herbicidal activity was investigated.
as §2

[6] = test system: Ivyleaf morningglory; experiment: Herbicidal activity test, soil surface treatment; format: in vivo, Ipomoea hederacea; design: key: 0: situations in which the condition of sprouting or vegetation at the time of examination of the plant utilized for the test was compared with and showed totally or substantially no difference with that of the untreated application; 10: situations in which the plant completely withered or the sprouting or vegetation was completely suppressed; details: 500 g/ha, sprayed onto the surface of the soil after seeding, investigated after 19 days in a greenhouse
Description: as §3, §2

[7] = test system: Blackgrass; experiment: Herbicidal activity test, soil surface treatment; format: in vivo, Alopercurus myosuroides; design: key: 0: situations in which the condition of sprouting or vegetation at the time of examination of the plant utilized for the test was compared with and showed totally or substantially no difference with that of the untreated application; 10: situations in which the plant completely withered or the sprouting or vegetation was completely suppressed; details: 500 g/ha, sprayed onto the surface of the soil after seeding, investigated after 19 days in a greenhouse
Description: as §3, §2

[8] = test system: Barnyardgrass; experiment: Herbicidal activity test, foliage treatment; format: in vivo, Echinochloa crus-galli; design: key: 0: situations in which the condition of sprouting or vegetation at the time of examination of the plant utilized for the test was compared with and showed totally or substantially no difference with that of the untreated application; 10: situations in which the plant completely withered or the sprouting or vegetation was completely suppressed; details: sprayed onto the foliage of plants cultivated 10 days, investigated after 16 days in a greenhouse
Description: as §1, §2

Structure (SMILES) | concentration of the compound detected from the cell suspension at 1 day compared to 0 hours after the start of shaking [1] | concentration of the compound detected from the JM109/pKSN849AF cell suspension compared to the JM109/pKSN2 cell suspension [2] | Herbicidal Activity Blackgrass ([3]; 125 g/ha) | Herbicidal Activity Blackgrass ([3]; 500 g/ha) | Herbicidal Activity Ivyleaf Morningglory ([4]; 125 g/ha) | Herbicidal Activity Ivyleaf Morningglory ([4]; 500 g/ha) | Herbicidal Activity Barnyardgrass [5] | Herbicidal Activity Ivyleaf Morningglory [6] | Herbicidal Activity Blackgrass [7] | Herbicidal Activity Barnyardgrass ([8]; 125 g/ha) | Herbicidal Activity Barnyardgrass ([8]; 500 g/ha)
C=CCOC(=O)C(C)(C)OC(=O)c1cc(-n2c(=O)cc(C(F)(F)F)n(C)c2=O)ccc1Cl [compound (X)] | lower | lower | – | – | – | – | – | – | – | – | –
C[C@@H](Oc1cc(-n2c(=O)cc(C(F)(F)F)[nH]c2=O)c(F)cc1Cl)C(=O)O [compound (III)] | – | – | 0 | 0 | 0 | 0 | 0 | 0 | 0 | 0 | 0
